Among the data in article PMC6934184, “Selective DNA-PKcs inhibition extends the therapeutic index of localized radiotherapy and chemotherapy” (The Journal of Clinical Investigation, 2019) are inhibition values, retold here.

The target of this experiment is T1, TLK2 (Homo sapiens, UniProt Q86UE8).
T1 construct: purchased Thermo Fisher Scientific (Life Technologies) SelectScreen
The experiment is described as follows: SelectScreen LanthaScreen. The settings on record: read-out: % displacement. The experiment is classed as binding. The procedure, abridged: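 SelectScreen broad panel; activity (Z'LYTE, Adapta) plus binding formats. ATP: Km app for CSF1R Z'LYTE; 10 for CAMK1 Adapta. Readout = % per kinase.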

Structures are written as SMILES.

T1 sequence (Q86UE8 whole entry): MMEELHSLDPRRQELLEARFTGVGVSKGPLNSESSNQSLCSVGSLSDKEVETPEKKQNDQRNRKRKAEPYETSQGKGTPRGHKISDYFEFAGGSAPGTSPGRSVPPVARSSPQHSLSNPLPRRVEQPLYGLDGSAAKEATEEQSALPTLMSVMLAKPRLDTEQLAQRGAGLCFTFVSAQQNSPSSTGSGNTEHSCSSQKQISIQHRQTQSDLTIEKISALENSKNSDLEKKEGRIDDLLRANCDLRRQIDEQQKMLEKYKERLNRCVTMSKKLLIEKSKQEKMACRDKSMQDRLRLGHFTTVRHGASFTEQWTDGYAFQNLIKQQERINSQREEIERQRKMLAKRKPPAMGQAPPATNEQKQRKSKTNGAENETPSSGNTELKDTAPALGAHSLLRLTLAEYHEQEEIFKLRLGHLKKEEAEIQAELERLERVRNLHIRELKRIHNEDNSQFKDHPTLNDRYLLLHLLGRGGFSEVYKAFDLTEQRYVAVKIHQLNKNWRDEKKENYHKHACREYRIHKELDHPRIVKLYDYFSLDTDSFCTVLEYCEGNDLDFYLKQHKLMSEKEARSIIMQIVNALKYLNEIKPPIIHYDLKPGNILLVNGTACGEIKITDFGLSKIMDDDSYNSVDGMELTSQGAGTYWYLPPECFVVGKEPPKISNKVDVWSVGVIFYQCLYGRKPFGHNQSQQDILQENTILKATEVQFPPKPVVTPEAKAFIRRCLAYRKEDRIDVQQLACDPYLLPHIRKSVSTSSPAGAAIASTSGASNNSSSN

`CN(C(=O)CN1CCOCC1)c1ccc2sc3c(-c4cccc5c(=O)cc(N6CC7CCC(C6)O7)oc45)cccc3c2c1` [NU5455]: the inhibition at 1 µM was -0.3%.
